pEC50: −log10 of the molar value. Where two headings read alike, the source gives them in different places.
Target: T1, CFTR (F508del/MF-HBE cells) (Homo sapiens, UniProt P13569, DEL508-508)
T1 construct: human bronchial epithelial (HBE) cells derived from CF subjects heterozygous for F508del and a minimal function CFTR mutation (F508del/MF-HBE); endogenous in cells; host or cells: Primary human bronchial epithelial cells from CF subjects (F508del/MF genotype), differentiated at an air-liquid interface
T1 sequence (P13569 with tags, fused parts or gaps DEL508-508): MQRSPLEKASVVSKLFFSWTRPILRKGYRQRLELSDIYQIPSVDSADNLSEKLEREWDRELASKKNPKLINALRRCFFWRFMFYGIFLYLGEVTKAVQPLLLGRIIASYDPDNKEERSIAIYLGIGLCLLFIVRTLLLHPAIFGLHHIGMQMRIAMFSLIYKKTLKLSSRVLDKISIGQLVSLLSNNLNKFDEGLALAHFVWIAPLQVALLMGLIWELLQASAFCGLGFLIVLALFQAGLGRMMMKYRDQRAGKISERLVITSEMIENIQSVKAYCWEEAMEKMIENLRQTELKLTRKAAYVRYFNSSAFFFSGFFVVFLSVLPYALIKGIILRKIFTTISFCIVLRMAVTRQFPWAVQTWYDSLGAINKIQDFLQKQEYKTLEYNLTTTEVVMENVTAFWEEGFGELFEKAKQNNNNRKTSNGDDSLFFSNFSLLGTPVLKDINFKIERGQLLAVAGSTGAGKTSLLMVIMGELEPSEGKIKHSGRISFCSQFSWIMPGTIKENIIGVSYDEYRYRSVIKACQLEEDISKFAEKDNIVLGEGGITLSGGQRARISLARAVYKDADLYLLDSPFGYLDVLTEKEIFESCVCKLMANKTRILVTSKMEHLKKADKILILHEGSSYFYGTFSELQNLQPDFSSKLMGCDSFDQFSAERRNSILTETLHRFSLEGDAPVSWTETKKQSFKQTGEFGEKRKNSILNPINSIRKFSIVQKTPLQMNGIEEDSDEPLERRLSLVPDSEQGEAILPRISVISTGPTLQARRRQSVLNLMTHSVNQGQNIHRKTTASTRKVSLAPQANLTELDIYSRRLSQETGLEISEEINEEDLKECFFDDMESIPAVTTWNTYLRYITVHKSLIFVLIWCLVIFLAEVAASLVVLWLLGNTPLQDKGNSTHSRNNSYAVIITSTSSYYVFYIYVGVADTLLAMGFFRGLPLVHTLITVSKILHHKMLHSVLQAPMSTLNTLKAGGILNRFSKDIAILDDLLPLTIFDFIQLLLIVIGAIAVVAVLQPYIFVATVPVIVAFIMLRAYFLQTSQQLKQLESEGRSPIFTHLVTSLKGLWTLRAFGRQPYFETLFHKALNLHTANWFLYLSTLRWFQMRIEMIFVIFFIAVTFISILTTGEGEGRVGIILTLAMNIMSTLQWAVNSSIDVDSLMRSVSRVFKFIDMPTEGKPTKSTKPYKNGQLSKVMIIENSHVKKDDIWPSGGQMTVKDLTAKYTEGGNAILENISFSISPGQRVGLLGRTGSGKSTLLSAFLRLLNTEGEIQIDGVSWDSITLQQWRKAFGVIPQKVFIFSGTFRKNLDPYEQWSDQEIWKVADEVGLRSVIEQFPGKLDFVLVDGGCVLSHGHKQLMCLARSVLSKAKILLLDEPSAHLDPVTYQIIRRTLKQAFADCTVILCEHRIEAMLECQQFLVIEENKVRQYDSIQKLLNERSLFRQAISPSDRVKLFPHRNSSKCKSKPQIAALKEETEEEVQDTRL
Assay: Ussing chamber assay of CFTR-mediated short-circuit currents, Assay C (0.026 μM to 25 μM, 6 concentrations)
Assay type: cell-based
Details: with 33 nM potentiator and 18 μM Tezacaftor, 20% human serum; for Emax: read-out: C Max activity (%)
Description: Ussing chamber experiments were performed using human bronchial epithelial (HBE) cells derived from CF subjects heterozygous for F508del and a minimal function CFTR mutation (F508del/MF-HBE) and cultured as previously described (Neuberger T, Burton B, Clark H, Van Goor F Methods Mol Biol 2011:741:39-54). After four days the apical media was removed, and the cells were grown at an air liquid interface for >14 days prior to use.
To isolate the CFTR-mediated short-circuit (ISC) current, F508del/MF-HBE grown on Costar® Snapwell™ cell culture inserts were mounted in an Ussing chamber and the transepithelial ISC was measured under voltage-clamp recording conditions (Vhold=0 mV) at 37° C. The basolateral solution contained (in mM) 145 NaCl, 0.83 K2HPO4, 3.3 KH2PO4, 1.2 MgCl2, 1.2 CaCl2, 10 Glucose, 10 HEPES (pH adjusted to 7.4 with NaOH) and the apical solution contained (in mM) 145 NaGluconate, 1.2 MgCl2, 1.2 CaCl2, 10 glucose, 10 HEPES (pH adjusted to 7.4 with NaOH) and 30 μM amiloride to block the epithelial sodium channel. Forskolin (20 μM) was added to the apical surface to activate CFTR, followed by apical addition of a CFTR inhibitor cocktail consisting of BPO, GlyH-101, and CFTR inhibitor 172 (each at 20 μM final assay concentration) to specifically isolate CFTR currents. The CFTR-mediated ISC (μA/cm^2) for each condition was determined from the peak forskolin response to the steady-state current following inhibition.
The activity of the CFTR corrector compounds on the CFTR-mediated ISC was determined in Ussing chamber studies as described above. The F508del/MF-HBE cell cultures were either incubated with the corrector compounds at a range of concentrations in combination with 33 nM (6R,12R)-17-amino-12-methyl-6,15-bis(trifluoromethyl)-13,19-dioxa-3,4,18-triazatricyclo[12.3.1.12,5]nonadeca-1(18),2,4,14,16-pentaen-6-ol and 18 μM Tezacaftor or were incubated with the corrector compounds at a single fixed concentration of 1 μM in combination with 44 nM (6R,12R)-17-amino-12-methyl-6,15-bis(trifluoromethyl)-13,19-dioxa-3,4,18-triazatricyclo[12.3.1.12,5]nonadeca-1(18),2,4,14,16-pentaen-6-ol and 18 μM Tezacaftor for 18-24 hours at 37° C. and in the presence of 20% human serum. The concentration of corrector compounds with 44 nM or 33 nM (6R,12R)-17-amino-12-methyl-6,15-bis(trifluoromethyl)-13,19-dioxa-3,4,18-triazatricyclo[12.3.1.12,5]nonadeca-1(18),2,4,14,16-pentaen-6-ol and 18 μM Tezacaftor during the 18-24 hours incubations was kept constant throughout the Ussing chamber measurement of the CFTR-mediated ISC to ensure compounds were present throughout the entire experiment. The efficacy and potency of the putative F508del correctors was compared to that of the known Vertex corrector, (14S)-8-[3-(2-{Dispiro[2.0.2.1]heptan-7-yl}ethoxy)-1H-pyrazol-1-yl]-12,12-dimethyl-2λ^6-thia-3,9,11,18,23-pentaazatetracyclo[17.3.1.111,14.05,10]tetracosa-1(22),5,7,9,19(23),20-hexaene-2,2,4-trione, in combination with 18 μM Tezacaftor and 1 μM Ivacaftor.
• Assay A: 0.1 μM to 25 μM, 6 concentrations • Assay B: 0.00001 μM to 25 μM, 12 concentrations • Assay C: 0.026 μM to 25 μM, 6 concentrations • Assay D: Activity at single concentration of 1 μM

Cc1cccc(C)c1-c1cc2nc(n1)NS(=O)(=O)c1cccc(c1)C(=O)N(Cc1cnc3oc(C(C)(C)CO)cc3n1)[C@H](CC1(C)CC1)CO2 [Compound I-112]
Emax (18-24 hours): > 60%
pEC50: 4.52 to 5.52

Cc1cccc(C)c1-c1cc2nc(n1)NS(=O)(=O)c1cccc(c1)C(=O)N(Cc1cnc3oc(C4CCC4)cc3n1)[C@H](CC1(C)CC1)CO2 [Compound I-133]
Emax (18-24 hours): > 60%
pEC50: 4.52 to 5.52

Cc1cccc(C)c1-c1cc2nc(n1)NS(=O)(=O)c1cccc(c1)C(=O)N(Cc1cnc3oc(C(C)(C)C)cc3n1)[C@H](COC(C)C)CO2 [Compound I-174]
Emax (18-24 hours): > 60%
pEC50: 4.52 to 5.52

Cc1cccc(C)c1-c1cc2nc(n1)NS(=O)(=O)c1cccc(c1)C(=O)N(Cc1nc3cc(C4CC4)oc3cc1F)[C@H](COC(C)C)CO2 [Compound I-198]
Emax (18-24 hours): > 60%
pEC50: 5.52 to 6.00

Cc1cccc(C)c1-c1cc2nc(n1)NS(=O)(=O)c1cccc(c1)C(=O)N(Cc1ncc3oc(C4CC4)cc3n1)[C@H](CC1(C)CC1)CO2 [Compound I-199]
Emax (18-24 hours): > 60%
pEC50: 4.52 to 5.52

Cc1cccc(C)c1-c1cc2nc(n1)NS(=O)(=O)c1cccc(c1)C(=O)N(Cc1nc3cc(C4CC4)oc3cc1F)[C@H](CC13CC(C1)C3)CO2 [Compound I-208]
Emax (18-24 hours): > 60%
pEC50: 5.52 to 6.00

Cc1cccc(C)c1-c1cc2nc(n1)NS(=O)(=O)c1cccc(c1)C(=O)N(Cc1ncc3oc(C4CC4)cc3n1)[C@H](CC13CC(C1)C3)CO2 [Compound I-209]
Emax (18-24 hours): > 60%
pEC50: 5.52 to 6.00

Cc1cccc(CC(C)C)c1-c1nc2nc(c1C)OC[C@@H](CC13CC(C1)C3)N(Cc1cnc3oc(C(C)(C)C)cc3n1)C(=O)c1cccc(c1)S(=O)(=O)N2 [Compound I-247]
Emax (18-24 hours): > 60%
pEC50: > 6.00

Cc1cccc(C)c1-c1cc2nc(n1)NS(=O)(=O)c1cccc(c1)C(=O)N(Cc1ncc3oc(C(C)(C)C)cc3n1)[C@H](CC13CC(C1)C3)CO2 [Compound I-251]
Emax (18-24 hours): > 60%
pEC50: 5.52 to 6.00

C=C(C)c1cc2nc(CN3C(=O)c4cccc(c4)S(=O)(=O)Nc4nc(cc(-c5c(C)cccc5C)n4)OC[C@H]3CC3(C)CC3)cnc2o1 [Compound I-255, (11R)-6-(2,6-dimethylphenyl)-12-[(6-isopropenylfuro[2,3-b]pyrazin-2-yl)methyl]-11-[(1-methylcyclopropyl)methyl]-2,2-dioxo-9-oxa-2λ^6-thia-3,5,12,19-tetrazatricyclo[12.3.1.14,8]nonadeca-1(18),4(19),5,7,14,16-hexaen-13-one]
Emax (18-24 hours): > 60%
pEC50: 5.52 to 6.00

Cc1cccc(C)c1-c1cc2nc(n1)NS(=O)(=O)c1cccc(c1)C(=O)N(Cc1cnc3oc(C(C)CO)cc3n1)[C@H](CC1(C)CC1)CO2 (some centres unmarked) [Compound I-256]
Emax (18-24 hours): > 60%
pEC50: 5.52 to 6.00

Cc1cccc(C)c1-c1nc2nc(c1C)OC[C@@H](CC(C)(C)C)N(Cc1ncc3oc(C(C)(C)C)cc3n1)C(=O)c1cccc(c1)S(=O)(=O)N2 [Compound I-259]
Emax (18-24 hours): > 60%
pEC50: > 6.00

Cc1cccc(C)c1-c1cc2nc(n1)NS(=O)(=O)c1cccc(c1)C(=O)N(Cc1cnc3c(n1)CN(C(C)C)C3=O)[C@H](CC1(C)CC1)CO2 [III-18]
Emax (18-24 hours): > 60%
pEC50: 5.52 to 6.00

Cc1cccc(C)c1-c1cc2nc(n1)NS(=O)(=O)c1cccc(c1)C(=O)N(Cc1cnc3cc(C(C)(C)C)n(C)c3n1)[C@@H](C(C1CCC1)C1CCC1)CO2 [IV-50]
pEC50: > 6.00
Emax: > 60%

Cc1cccc(C)c1-c1cc2nc(n1)NS(=O)(=O)c1cccc(c1)C(=O)N(Cc1cnc3oc([C@H](C)CO)cc3n1)[C@H](CC1(C)CC1)CO2 [IV-52, (11R)-6-(2,6-Dimethylphenyl)-12-[[6-[(1R)-2-hydroxy-1-methyl-ethyl]furo[2,3-b]pyrazin-2-yl]methyl]-11-[(1-methylcyclopropyl)methyl]-2,2-dioxo-9-oxa-2λ^6-thia-3,5,12,19-tetrazatricyclo[12.3.1.14,8]nonadeca-1(18),4(19),5,7,14,16-hexaen-13-one]
pEC50: 4.52 to 5.52
Emax: > 60%

Cc1cccc(C)c1-c1cc2nc(n1)NS(=O)(=O)c1cccc(c1)C(=O)N(Cc1cnc3oc(C(C)(C)C)cc3n1)[C@H](CC13CC(C)(C1)C3)CO2 [IV-53, (11R)-12-[(6-tert-butylfuro[2,3-b]pyrazin-2-yl)methyl]-6-(2,6-dimethylphenyl)-11-[(3-methyl-1-bicyclo[1.1.1]pentanyl)methyl]-2,2-dioxo-9-oxa-2λ^6-thia-3,5,12,19-tetrazatricyclo[12.3.1.14,8]nonadeca-1(18),4(19),5,7,14,16-hexaen-13-one]
pEC50: 5.52 to 6.00
Emax: > 60%

Cc1cccc(C)c1-c1cc2nc(n1)NS(=O)(=O)c1cccc(c1)C(=O)N(Cc1cnc3oc(C(C)(C)C)cc3n1)[C@@H](CC1CC(F)(F)C1)CO2 [IV-57]
pEC50: 4.52 to 5.52
Emax: > 60%

Cc1cccc(C)c1-c1cc2nc(n1)NS(=O)(=O)c1cccc(c1)C(=O)N(Cc1cnc3oc(C4CC4)cc3n1)[C@H]([C@H](C)OCc1ccccc1)CO2 [IV-62]
pEC50: 4.52 to 5.52
Emax: > 60%

Cc1cccc(C)c1-c1cc2nc(n1)NS(=O)(=O)c1cccc(c1)C(=O)N(Cc1ccn3cc(C(C)C)nc3n1)[C@H](CC13CC(C1)C3)CO2 [IV-63, (11R)-11-(1-Bicyclo[1.1.1]pentanylmethyl)-6-(2,6-dimethylphenyl)-12-[(2-isopropyl-imidazo[1,2-a]pyrimidin-7-yl)methyl]-2,2-dioxo-9-oxa-2λ^6-thia-3,5,12,19-tetrazatricyclo[12.3.1.14,8]nonadeca-1(18),4(19),5,7,14,16-hexaen-13-one]
pEC50: > 6.00
Emax: > 60%

Cc1cccc(C)c1-c1cc2nc(n1)NS(=O)(=O)c1cccc(c1)C(=O)N(Cc1cnc3oc(C4CC5(CC5)C4)cc3n1)[C@H](CC1(C)CC1)CO2 [IV-65]
pEC50: 5.52 to 6.00
Emax: > 60%

CCc1cccc(CC)c1-c1cc2nc(n1)NS(=O)(=O)c1cccc(c1)C(=O)N(Cc1cnc3cc(C(C)(C)C)n(C)c3n1)[C@H](CC(C)(C)C)CO2 [IV-66]
pEC50: > 6.00
Emax: > 60%

CCc1cccc(CC)c1-c1cc2nc(n1)NS(=O)(=O)c1cccc(c1)C(=O)N(Cc1cnc3oc(C(C)(C)C)cc3n1)[C@H](CC(C)(C)C)CO2 [IV-67]
pEC50: 4.52 to 5.52
Emax: > 60%

CCc1cccc(CC)c1-c1cc2nc(n1)NS(=O)(=O)c1cccc(c1)C(=O)N(Cc1cnc3oc(C4CC4)cc3n1)[C@H](CC(C)(C)C)CO2 [IV-68]
pEC50: 5.52 to 6.00
Emax: > 60%

Cc1cccc(CC(C)C)c1-c1nc2nc(c1C)OC[C@@H](COC(F)(F)F)N(Cc1cnc3cc(C4CC4)n(C)c3n1)C(=O)c1cccc(c1)S(=O)(=O)N2 [IV-69]
pEC50: 5.52 to 6.00
Emax: > 60%

CCc1cccc(CC)c1-c1cc2nc(n1)NS(=O)(=O)c1cccc(c1)C(=O)N(Cc1cnc3cc(C4(C)CC4)n(C)c3n1)[C@H](CC(C)(C)C)CO2 [IV-71]
pEC50: 5.52 to 6.00
Emax: > 60%

Cc1cccc(CC(C)C)c1-c1nc2nc(c1C)OC[C@@H](CC1(C)CC1)N(Cc1cnc3cc(C(C)(C)C)n(C)c3n1)C(=O)c1cccc(n1)S(=O)(=O)N2 [IV-72]
pEC50: 5.52 to 6.00
Emax: > 60%

Cc1cccc(C)c1-c1cc2nc(n1)NS(=O)(=O)c1cccc(c1)C(=O)N(Cc1cnc3cc(C4(C(F)(F)F)CC4)n(C)c3n1)[C@H](CC13CC(C1)C3)CO2 [IV-73]
pEC50: > 6.00
Emax: > 60%

Cc1cccc(C)c1-c1cc2nc(n1)NS(=O)(=O)c1cccc(c1)C(=O)N(Cc1cnc3cc(C4(C(F)(F)F)CC4)n(C)c3n1)[C@H](COC(C)C)CO2 [IV-74]
pEC50: 5.52 to 6.00
Emax: > 60%
